According to PMC9501525, “Conjugation of a Cationic Cell-Penetrating Peptide with a Novel Kunitzin-like Trypsin Inhibitor: New Insights for Enhancement of Peptide Bioactivities” (Pharmaceutics, 2022):
pIC50: −log10 of the molar value. Peptide text beside a SMILES is read from it.

Key:
Format in all cases: cell-based
[1] = test system: MCF-7 human breast cancer cells; assay: MTT cell antiproliferation assay; details: MCF-7, MTT, 24 h of treatment, serum free medium, 10^−9–10^−4 M
Method: (§1) The antiproliferative activities of the synthesized peptides were assessed on six human cancer cell lines (PC-3, H157, H460, H838, MCF-7, U251MG) and two human normal cell lines (HMEC-1 and MRC-5) using the MTT cell viability assay. Human lung cancer cells (H838, H157, and H460) and human prostate cancer cells (PC-3) were cultured in complete growth medium (CGM) (Roswell Park Memorial Institute (RPMI) 1640 Medium (Gibco, Paisley, UK): Fetal bovine serum (FBS) (Gibco, Campinas, Brazil): Penicillin-streptomycin solution (PS) (Gibco, Grand Island, NY, USA) 89/10/1 v/v/v). Human glioblastoma astrocytoma (U251MG) and human breast cancer cell (MCF-7) were cultured in complete growth medium (Dulbecco’s Modified Eagle medium (DMEM) (Gibco, Paisley, UK): FBS: PS 89/10/1 v/v/v). Human microvascular endothelial cells (HMEC-1) and human pulmonary fibroblast cells (MRC-5) were cultured in MCDB131 medium (supplemented with 10% FBS, 1% PS, 10 ng/mL epidermal growth factor, 1 µg/mL hydrocortisone, and 10 mM glutamine) and Eagle’s Minimal Essential Medium (EMEM) (supplemented with 10% FBS and 1% PS), respectively. Cell suspension, containing 8 × 10^3 cells per 100 µL, was first added to 96-well plates for overnight incubation. Then, the adherent cells in the 96-well plates were subject to cell starvation using the serum free medium treatment for at least 4 h to ensure that the cells were all in the same growth cycle. The peptide solutions, with final concentrations of 10^−9–10^−4 M, were prepared with serum free medium and added onto the plate. In addition, Triton X-100 (0.1%) (Sigma-Aldrich, St. Louis, MO, USA) was used as a positive control. After 24 h of administration, the MTT solution was added to the plate and incubated for 2 h. Then, the supernatant was discarded and DMSO was added to dissolve the purple formazan crystals. The absorbance was measured in all wells using the Synergy HT plate reader at a wavelength of 570 nm.

[2] = test system: H460 human lung cancer cells; assay: MTT cell antiproliferation assay; details: 24 h of treatment, serum free medium, 10^−9–10^−4 M
Method: as §1

[3] = test system: MRC-5 human pulmonary fibroblast cells; assay: MTT cell antiproliferation assay; details: MRC-5 normal cells, 24 h of treatment, 10^−9–10^−4 M
Method: as §1

[4] = test system: U251MG human glioblastoma cells; assay: MTT cell antiproliferation assay; details: 24 h of treatment, serum free medium, 10^−9–10^−4 M
Method: as §1

[5] = test system: MRC-5 human pulmonary fibroblast cells; assay: LDH cytotoxicity assay; details: MRC-5, 24 h, highest test concentration 100 µM; relative to lysis buffer maximum
Method: A CyQUANT™ LDH Cytotoxicity Detection Kit (Thermo Fisher Scientific, Waltham, MA, USA) was used to detect the LDH released from human microvascular endothelial cell line (HMEC-1) and human pulmonary fibroblast cell line (MRC-5). Cells were cultured as for the MTT antiproliferation assay described previously. After incubation, the peptide solutions at the same concentrations as in the previous method were added to the cells for further incubation of 24 h. Among these, the positive control group, representing the maximal LDH release, was obtained from the 10 × lysis buffer supplied in the kit. The lysis buffer was added to the control group and co-cultured for 45 min, while deionized water was added to the spontaneous LDH release control. Subsequently, the same volume of sample as the reaction mixture was withdrawn, added into a new 96-well plate, and mixed well. After co-culturing under dark conditions for 30 min, an equal amount of stop solution was added to stop the reaction. Absorbance values of all experimental groups were measured at wavelengths of 490 and 680 nm using the Synergy HT plate reader.

SMILES: CC(C)C[C@H](NC(=O)[C@H](CCCCN)NC(=O)[C@H](C)NC(=O)[C@H](C)NC(=O)CNC(=O)CNC(=O)[C@H](CCCNC(=N)N)NC(=O)[C@H](CCCNC(=N)N)NC(=O)[C@H](CCCNC(=N)N)NC(=O)[C@H](CCC(N)=O)NC(=O)[C@H](CCCNC(=N)N)NC(=O)[C@H](CCCNC(=N)N)NC(=O)[C@H](CCCCN)NC(=O)[C@H](CCCCN)NC(=O)[C@@H](N)CCCNC(=N)N)C(=O)N1CCC[C@H]1C(=O)N[C@@H](Cc1ccccc1)C(=O)N[C@@H](CCCNC(=N)N)C(=O)N[C@H]1CSSC[C@@H](C(=O)O)NC(=O)[C@H](Cc2ccccc2)NC(=O)[C@H](C)NC(=O)[C@H](C)NC(=O)[C@H](Cc2ccccc2)NC1=O [TAT-F9-KOV2] (HELM PEPTIDE1{R.K.K.R.R.Q.R.R.R.G.G.A.A.K.L.P.F.R.C.F.A.A.F.C}$PEPTIDE1,PEPTIDE1,19:R3-24:R3$$$V2.0)
- pIC50 [1]: 4.93
- pIC50 [2]: 5.29
- pIC50 [3]: 4.36
- pIC50 [4]: 5.12
- LDH release [5]: more than 10%

SMILES: CC(C)C[C@H](NC(=O)[C@H](CCCCN)NC(=O)[C@H](C)NC(=O)[C@H](C)NC(=O)CNC(=O)CNC(=O)[C@H](CCCNC(=N)N)NC(=O)[C@H](CCCNC(=N)N)NC(=O)[C@H](CCCNC(=N)N)NC(=O)[C@H](CCC(N)=O)NC(=O)[C@H](CCCNC(=N)N)NC(=O)[C@H](CCCNC(=N)N)NC(=O)[C@H](CCCCN)NC(=O)[C@H](CCCCN)NC(=O)[C@@H](N)CCCNC(=N)N)C(=O)N1CCC[C@H]1C(=O)N[C@@H](Cc1ccccc1)C(=O)N[C@@H](CCCNC(=N)N)C(=O)N[C@H]1CSSC[C@@H](C(=O)O)NC(=O)[C@H](Cc2ccccc2)NC(=O)[C@H](C)NC(=O)[C@H](C)NC(=O)[C@H](CCCCN)NC1=O [TAT-KOV2] (HELM PEPTIDE1{R.K.K.R.R.Q.R.R.R.G.G.A.A.K.L.P.F.R.C.K.A.A.F.C}$PEPTIDE1,PEPTIDE1,19:R3-24:R3$$$V2.0)
- pIC50 [2]: 4.31
- pIC50 [3]: 4.19
